Measured values reported in patent publication US20230312578A1, “6H-INDOLO[2,3-B]QUINOXALINE DERIVATIVES USEFUL IN THERAPY” (Vironova Medical AB, priority 2020, published 2023).
Where two headings read alike, the source gives them in different places.

Legend:
Assay type in all cases: cell-based
[1] = test system: HL-60(TB); assay: Human tumor cell line growth assay (SRB); conditions: Leukemia, 48 h
[2] = Human tumor cell line growth assay (SRB); conditions: human, MOLT-4 cells (leukemia), MOLT-4, 48 h, read-out: LC50
[3] = test system: MOLT-4; assay: Human tumor cell line growth assay (SRB); conditions: Homo sapiens; Leukemia, MOLT-4, 48 h
[4] = test system: RPMI-8226; assay: Human tumor cell line growth assay (SRB); conditions: Homo sapiens; Leukemia, RPMI-8226, 48 h
[5] = Human tumor cell line growth assay (SRB); conditions: human, SR cells (leukemia), read-out: LC50
[6] = test system: SR; assay: Human tumor cell line growth assay (SRB); conditions: Homo sapiens, Leukemia, 48 h
[7] = Human tumor cell line growth assay (SRB); conditions: human, EKVX cells (NSCLC), read-out: LC50
[8] = test system: EKVX; assay: Human tumor cell line growth assay (SRB); conditions: Homo sapiens, NSCLC, 48 h
[9] = Human tumor cell line growth assay (SRB); conditions: human, HOP-62 cells (NSCLC), HOP-62, 48 h, read-out: LC50
[10] = test system: HOP-62; assay: Human tumor cell line growth assay (SRB); conditions: Homo sapiens; NSCLC, HOP-62, 48 h
[11] = Human tumor cell line growth assay (SRB); conditions: human, NCI-H322M cells (NSCLC), read-out: LC50
[12] = test system: NCI-H322M; assay: Human tumor cell line growth assay (SRB); conditions: Homo sapiens, NSCLC, 48 h
[13] = Human tumor cell line growth assay (SRB); conditions: human, HCT-15 cells (colon), HCT-15, 48 h
[14] = test system: HCT-15; assay: Human tumor cell line growth assay (SRB); conditions: Homo sapiens; Colon, HCT-15, 48 h
[15] = Human tumor cell line growth assay (SRB); conditions: human, HT29 cells (colon), HT29, 48 h, read-out: LC50
[16] = test system: HT29; assay: Human tumor cell line growth assay (SRB); conditions: Homo sapiens, HT-29; Colon, HT29, 48 h
[17] = Human tumor cell line growth assay (SRB); conditions: human, KM12 cells (colon), KM12, 48 h, read-out: LC50
[18] = test system: KM12; assay: Human tumor cell line growth assay (SRB); conditions: Homo sapiens; Colon, KM12, 48 h
[19] = Human tumor cell line growth assay (SRB); conditions: human, SF-295 cells (CNS), SF-295, 48 h, read-out: LC50
[20] = test system: SF-295; assay: Human tumor cell line growth assay (SRB); conditions: Homo sapiens; CNS, SF-295, 48 h
[21] = Human tumor cell line growth assay (SRB); conditions: human, SNB-75 cells (CNS), SNB-75, 48 h
[22] = test system: SNB-75; assay: Human tumor cell line growth assay (SRB); conditions: Homo sapiens; CNS, SNB-75, 48 h
[23] = Human tumor cell line growth assay (SRB); conditions: human, LOX IMVI cells (melanoma), read-out: LC50
[24] = test system: LOX IMVI; assay: Human tumor cell line growth assay (SRB); conditions: Homo sapiens, Melanoma, 48 h
[25] = Human tumor cell line growth assay (SRB); conditions: human, SK-MEL-5 cells (melanoma), SK-MEL-5, 48 h
[26] = test system: SK-MEL-5; assay: Human tumor cell line growth assay (SRB); conditions: Homo sapiens; Melanoma, SK-MEL-5, 48 h
[27] = Human tumor cell line growth assay (SRB); conditions: human, UACC-62 cells (melanoma), UACC-62, 48 h, read-out: LC50
[28] = Human tumor cell line growth assay (SRB); conditions: human, OVCAR-4 cells (ovarian), OVCAR-4, 48 h, read-out: LC50
[29] = test system: OVCAR-4; assay: Human tumor cell line growth assay (SRB); conditions: Homo sapiens; Ovarian, OVCAR-4, 48 h
[30] = test system: OVCAR-8; assay: Human tumor cell line growth assay (SRB); conditions: Ovarian, OVCAR-8, 48 h
[31] = test system: NCI/ADR-RES; assay: Human tumor cell line growth assay (SRB); conditions: Ovarian, 48 h
[32] = test system: 786-0; assay: Human tumor cell line growth assay (SRB); conditions: Renal, 786-0, 48 h
[33] = test system: RXF 393; assay: Human tumor cell line growth assay (SRB); conditions: Renal, RXF 393, 48 h
[34] = test system: SN12C; assay: Human tumor cell line growth assay (SRB); conditions: Renal, 48 h
[35] = test system: UO-31; assay: Human tumor cell line growth assay (SRB); conditions: Renal, UO-31, 48 h
[36] = test system: DU-145; assay: Human tumor cell line growth assay (SRB); conditions: Prostate, DU-145, 48 h
[37] = test system: MDA-MB-468; assay: Human tumor cell line growth assay (SRB); conditions: Breast, MDA-MB-468, 48 h
[38] = test system: BT-549; assay: Human tumor cell line growth assay (SRB); conditions: Breast, BT-549, 48 h
[39] = read-out: LC50 (the source's name)

Work on `COc1ccc2c(c1)c1nc3cc(C)c(C)cc3nc1n2CCN(C)C` [JBA-094, 2-(9-methoxy-2,3-dimethyl-6H-indolo[2,3-b]quinoxalin-6-yl)-N,N-dimethylethanamine] yielded a GI50 [1] of 1180 nM, a CC50 [1, 39] of over 100 µM and a CC50 at 48 h [2] of 96 µM. It also gave a GI50 [3] of 420 nM, a GI50 [4] of 640 nM and a CC50 at 48 h [5] of over 100 µM. The GI50 [6] was 409 nM, the CC50 at 48 h [7] was 6.8 µM and the GI50 [8] was 1280 nM. For the same molecule, the CC50 at 48 h [9] was over 100 µM, the GI50 [10] was 1190 nM and the CC50 at 48 h [11] was 6.41 µM. The GI50 [12] was 778 nM, the LC50 (concentration killing 50% of cells) at 48 h [13] was 5.57 µM and the GI50 [14] was 410 nM. For the same molecule, the CC50 at 48 h [15] was 5.72 µM, the GI50 [16] was 369 nM and the CC50 at 48 h [17] was 6.36 µM. The GI50 [18] was 1050 nM, the CC50 at 48 h [19] was 5.13 µM and the GI50 [20] was 1110 nM. It also gave an LC50 (concentration killing 50% of cells) at 48 h [21] of 23.8 µM, a GI50 [22] of 1230 nM and a CC50 at 48 h [23] of 6.07 µM. The GI50 [24] was 336 nM, the LC50 (concentration killing 50% of tumour cells) at 48 h [25] was 5.58 µM and the GI50 [26] was 1660 nM. The CC50 at 48 h [27] was 6.7 µM, the CC50 at 48 h [28] was 5.56 µM and the GI50 [29] was 1020 nM. For the same molecule, the GI50 [30] was 531 nM, the GI50 [31] was 588 nM and the GI50 [32] was 1040 nM. It also gave an LC50 [32] of 6.52 µM, a GI50 [33] of 1180 nM and a CC50 [33, 39] of 6.9 µM. For the same molecule, the GI50 [34] was 503 nM, the CC50 [34, 39] was 5.24 µM and the GI50 [35] was 273 nM. It also gave a CC50 [35, 39] of 4.93 µM, a GI50 [36] of 1010 nM and a CC50 [36, 39] of 5.32 µM. For the same molecule, the GI50 [37] was 749 nM, the CC50 [37, 39] was 6.9 µM and the GI50 [38] was 1650 nM. The CC50 [38, 39] was 7.09 µM.
